Source: patent US20100048482A1, “COMPOSITIONS AND METHODS FOR MODULATING EPSILON PROTEIN KINASE C-MEDIATED CYTOPROTECTION” (Board of Trustees of the Leland Stanford Junior University, priority 2008, published 2010)
Entries after “also recorded” stand apart in the source; their conditions may differ. Ends that are not written are not given here.

Experiments:
[1] = system: Langendorff perfused rat heart; assay: Ex vivo Langendorff perfused rat heart ischemia-reperfusion, creatine phosphokinase (CPK) release; conditions: for effect on IR-induced CPK release / IR injury: ex vivo IR
Procedure: In accordance with a well-established ex vivo rat heart model for ischemia-reperfusion (see, e.g., U.S. Publication Nos. 20080167247, 20080153926, 20070299012, and 20060293237, which are herein incorporated by reference) and the method described in Example 1, hearts were removed from animals (rats) and subjected to a normoxia or an IR protocol, both depicted in FIG. 1A. The normoxia regimen comprised exposing hearts to 70 minutes of a normal oxygen state. The IR (ischemia/reperfusion) regimens comprised subjecting hearts to 20 minutes of normoxia, followed by 35 minutes of ischemia, followed by 15 minutes of reperfusion. […] The amount of necrotic cell death was then determined by measuring the release of creatine phosphokinase (CPK) into the buffer perfusate during reperfusion, which served as an indicator of ischemic damage.
(§1) Rat hearts (Wistar, 250-300 g) were excised and cannulated on a Langendorff apparatus via the aorta. Briefly, retrograde perfusion was carried out with a constant coronary flow rate of 10 ml/min with oxygenated Krebs-Henseleit buffer containing 120 mM NaCl, 5,8 mM KCl, 25 mM NaHCO3, […], 1.2 mM MgSO4, 1.2 mM CaCl2, and 10 mM dextrose, pH 7.4 at 37° C. After a 20 min equilibration period, hearts were subjected to a 35 min of no-flow, global ischemia followed by 15 min of reperfusion. Control hearts were perfused with normoxic Krebs buffer and were time-matched for the experimental period. […] At the end of the 15 mins reperfusion period, hearts were rapidly transferred to ice-cold homogenization buffer and subcellular fractions separated by differential centrifugation as described below.
Necrotic damage was determined by measurement of the release of the cardiac myocyte cytosolic enzyme, creatine phosphokinase (CPK), into the effluent (FIG. 1B). The levels are expressed in arbitrary CPK units.
Isolated rat hearts were perfused with oxygenated Krebs-Henseleit solution comprised of NaCl ([…]); KCl ([…]); NaHCO3 ([…]); NaH2O4 ([…]); MgSO4 (1.2 nmol/L); CaCl2 (1.0 nmol/L); and dextrose (10 nmol/L), pH 7.4 at 37 C. After a 10 minute equilibration period, the hearts were treated with the ψεHSP90 peptide or control buffer solution. As depicted in FIG. 5A, Perfusion was maintained at a constant flow of 10 mL/min with Krebs-Henseleit solution containing 1 μM of the appropriate peptide. The Langendorff method employs retrograde flow […] and into the coronary arteries, bypassing the pulmonary arteries. To induce global ischemia, flow was interrupted for 35 minutes. After the ischemic event, the hearts were reperfused with Krebs-Henseleit solution for 15 minutes.
During reperfusion, ischemia-induced cell damage was determined by measuring the activity of creatine phosphokinase (CPK) in the coronary perfusate, carried out using a standard assay kit (Equal Diagnostics, CT, USA). The ψεHSP90 peptide was perfused in Langendorf mode for 10 minutes before and 10 minutes after the ischemic period (1 micromolar) and myocardial injury was assayed by the release of CPK into the effluent during reperfusion (FIG. 5B). Similar to the previous results, hearts that were subjected to IR had high levels of CPK in the effluent; however, perfusion with ψεHSP90 peptide decreased CPK release by 47% (n4; p<0.05; FIG. 5B). Translocation of εPKC and the related isoform δPKC to the mitochondria and plasma membrane was determined by western blotting using εPKC and δPKC antibodies (Santa Cruz Biotechnology) (FIG. 5C). […] Physical interaction between PKCε and HSP90 was determined by co-immunoprecipitation of PKCε and HSP90 in the mitochondrial fraction in hearts exposed to normoxia or IR in the absence or presence of 1 μM ψεHSP90 (FIG. 5D).

[2] = molecular target: T1, εPKC (Rattus norvegicus, UniProt P09216); assay: IR-induced mitochondrial translocation of εPKC (western blot of heart mitochondrial fraction)
T1 construct: Rat heart ventricles were removed from the cannula and homogenized; from tissue; host or cells: Wistar rat heart ventricle; mitochondrial, IMM or plasma membrane fractions
T1 sequence (P09216 1-737): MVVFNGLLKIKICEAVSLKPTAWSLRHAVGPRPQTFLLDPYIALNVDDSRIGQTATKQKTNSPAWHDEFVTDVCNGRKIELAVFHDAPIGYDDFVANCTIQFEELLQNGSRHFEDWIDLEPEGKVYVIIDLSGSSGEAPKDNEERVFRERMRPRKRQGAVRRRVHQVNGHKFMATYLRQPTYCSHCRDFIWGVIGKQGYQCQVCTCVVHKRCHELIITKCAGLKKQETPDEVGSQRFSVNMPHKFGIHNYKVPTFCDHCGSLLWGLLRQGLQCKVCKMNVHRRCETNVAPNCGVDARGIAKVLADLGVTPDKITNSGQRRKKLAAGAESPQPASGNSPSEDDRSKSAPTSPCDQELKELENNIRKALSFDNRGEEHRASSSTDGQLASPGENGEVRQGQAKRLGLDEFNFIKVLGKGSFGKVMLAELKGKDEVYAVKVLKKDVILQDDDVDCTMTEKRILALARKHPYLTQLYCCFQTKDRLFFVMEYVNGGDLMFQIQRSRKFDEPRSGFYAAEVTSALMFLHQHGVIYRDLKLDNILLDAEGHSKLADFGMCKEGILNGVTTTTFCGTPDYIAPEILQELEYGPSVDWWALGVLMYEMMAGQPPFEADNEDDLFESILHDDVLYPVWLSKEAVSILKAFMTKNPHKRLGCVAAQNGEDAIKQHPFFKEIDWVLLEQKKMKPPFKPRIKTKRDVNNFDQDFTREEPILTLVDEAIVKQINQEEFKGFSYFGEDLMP
Procedure: as §1
Rat heart ventricles were removed from the cannula and homogenized in ice-cold mannitol-sucrose buffer (210 mM mannitol, 70 mM sucrose, 5 mM MOPS and 1 mM EDTA containing Sigma Protease Inhibitor 1 and Sigma Phosphatase Inhibitors 1 and 2, added per manufacturer's instructions) The resultant homogenate was filtered through gauze and centrifuged at 700 g for 5 minutes to pellet nuclei and cellular debris. […] Mitochondrial purity was also assessed by electron microscopic analysis. Protein concentration was determined by Bradford assay and 10 μg protein separated on a 12% SDS-PAGE gel and transferred to nitrocellulose. PKC translocation was measured using antibodies raised against εPKC and δPKC with mitochondrial (ANT) and cytosolic (GAPDH) markers used to ensure equal sample loading of the mitochondrial and cytosolic fractions, respectively. […]
During reperfusion, ischemia-induced cell damage was determined by measuring the activity of creatine phosphokinase (CPK) in the coronary perfusate, carried out using a standard assay kit (Equal Diagnostics, CT, USA). […] Translocation of εPKC and the related isoform δPKC to the mitochondria and plasma membrane was determined by western blotting using εPKC and δPKC antibodies (Santa Cruz Biotechnology) (FIG. 5C). […]

[3] = molecular target: T2, recombinant human εPKC (Homo sapiens, UniProt Q02156); assay: In vitro mitochondrial translocation assay, recombinant GST-εPKC with isolated rat cardiac mitochondria; type: biochemical; conditions: for mitochondrial translocation of εPKC in the absence of phospholipids (PS/DAG): 1 μM ψεHSP90, hydrogen peroxide present, no PS/DAG, FIG. 6B lane 5
T2 construct: purchased Cell Signaling Technology
T2 sequence (Q02156 1-737): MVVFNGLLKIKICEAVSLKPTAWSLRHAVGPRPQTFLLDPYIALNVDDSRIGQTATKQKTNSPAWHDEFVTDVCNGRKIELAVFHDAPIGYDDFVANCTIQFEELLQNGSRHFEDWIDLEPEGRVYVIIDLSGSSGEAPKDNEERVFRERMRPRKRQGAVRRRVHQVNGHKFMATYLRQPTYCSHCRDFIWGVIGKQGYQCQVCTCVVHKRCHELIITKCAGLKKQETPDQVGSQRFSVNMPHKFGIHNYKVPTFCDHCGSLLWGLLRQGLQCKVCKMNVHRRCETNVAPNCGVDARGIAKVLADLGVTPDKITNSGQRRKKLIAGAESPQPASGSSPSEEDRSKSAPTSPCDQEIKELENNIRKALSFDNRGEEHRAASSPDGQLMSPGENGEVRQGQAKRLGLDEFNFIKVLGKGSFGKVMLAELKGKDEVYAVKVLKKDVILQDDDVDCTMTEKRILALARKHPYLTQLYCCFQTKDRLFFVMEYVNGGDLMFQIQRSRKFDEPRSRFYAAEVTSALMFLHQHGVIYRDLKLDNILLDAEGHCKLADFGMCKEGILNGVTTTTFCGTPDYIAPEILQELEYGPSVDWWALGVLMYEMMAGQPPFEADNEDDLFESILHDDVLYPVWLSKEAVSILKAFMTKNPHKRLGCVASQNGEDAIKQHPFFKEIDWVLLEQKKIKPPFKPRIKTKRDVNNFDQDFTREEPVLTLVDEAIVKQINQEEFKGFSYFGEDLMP
Procedure: An in vitro approach was used to identify cellular components that were important for εPKC translocation to the mitochondria. As described in Example 5, mitochondria were isolated from normoxic hearts and incubated for 20 minutes at 37° C. with purified recombinant GST-tagged εPKC (Cell Signaling Technology Inc,), which was pretreated by different combinations of PKC activation components including phospholipids and hydrogen peroxide (H2O2) in the absence (FIG. 6A) and presence (FIG. 6B) of the ψεHSP90 peptide. Following incubation of PKCε with its activation components, mitochondria were introduced into the εPKC mixture and incubated for an additional 20 minutes, after which the mitochondria were pelleted by centrifugation and then probed with antibodies selective for PKCε and the mitochondrial marker VDAC The use of GST-tagged εPKC allowed the distinction, based on size, between exogenous GST-εPKC and native/endogenous εPKC present in the mitochondria prior to treatment. Rabbit reticulocyte lysate (RRL) was used as an exogenous source of HSP90 as described previously (Scherrer et al., Biochemistry. 1992. 31:7325-7329)
Activation of recombinant εPKC was performed as described in the art. Briefly, recombinant εPKC (5 μl of 10 ng/μl stock) (Cell Signaling Technology) was aliquoted into assay buffer (20 mM Tris HCl, 50 mM KCl, 1 mM DTT, 0.1 mg/ml BSA Mg^2+ (5 mM), ATP (100 μM), pH 7.4) containing different combinations of activation factors including phosphatidylserine/diacylglycerol (1 mM), H2O2 (50 μM) or ψεHSP90 (1 μm) in a final volume of 50 μl . εPKC was activated by incubation in assay buffer at 37° C. for 20 min. Rabbit reticulocyte lysate (RRL) (10 μl) was added to the incubation mixture for 10 minutes after εPKC activation. […] Mitochondria were then spun at 10,000 g×10 min, resuspended in 50 μl sample loading buffer and mitochondrial εPKC levels measured by western blotting using VDAC as a loading control. […]

[4] = system: δPKC; assay: IR-induced mitochondrial translocation of δPKC (western blot of heart mitochondrial fraction); design: species or system rat; conditions: 1 μM ψεHSP90
[5] = molecular target: T3, PKCε (Rattus norvegicus, UniProt P09216); assay: PKCε translocation to plasma membrane fraction after IR (western blot); conditions: 1 μM ψεHSP90
T3 construct: Rat heart ventricles were removed from the cannula and homogenized; from tissue; host or cells: Wistar rat heart ventricle; mitochondrial, IMM or plasma membrane fractions
T3 sequence (P09216 1-737): T1 sequence (P09216 1-737)
Procedure: Rat heart ventricles were removed from the cannula and homogenized in ice-cold mannitol-sucrose buffer (210 mM mannitol, 70 mM sucrose, 5 mM MOPS and 1 mM EDTA containing Sigma Protease Inhibitor 1 and Sigma Phosphatase Inhibitors 1 and 2, added per manufacturer's instructions) The resultant homogenate was filtered through gauze and centrifuged at 700 g for 5 minutes to pellet nuclei and cellular debris. The supernatant was centrifuged at 10,000 g to pellet the mitochondrial-enriched fraction and the supernatant from this fraction centrifuged at 100,000 g to pellet the plasma membrane fraction. […] Mitochondrial purity was also assessed by electron microscopic analysis. Protein concentration was determined by Bradford assay and 10 μg protein separated on a 12% SDS-PAGE gel and transferred to nitrocellulose. PKC translocation was measured using antibodies raised against εPKC and δPKC with mitochondrial (ANT) and cytosolic (GAPDH) markers used to ensure equal sample loading of the mitochondrial and cytosolic fractions, respectively. Densitometry was performed using Image J software (NIH).
During reperfusion, ischemia-induced cell damage was determined by measuring the activity of creatine phosphokinase (CPK) in the coronary perfusate, carried out using a standard assay kit (Equal Diagnostics, CT, USA). […]

[6] = molecular target: T4, εPKC and HSP90 (Rattus norvegicus, UniProt P09216); assay: Co-immunoprecipitation of εPKC and HSP90 in heart mitochondrial fraction after IR
T4 construct: 200-500 μg of mitochondrial or cytosolic protein was diluted into 1 ml of IP Lysis Buffer; from tissue; host or cells: Wistar rat heart; mitochondrial (and cytosolic) fraction
T4 sequence (P09216 1-737): T1 sequence (P09216 1-737)
Procedure: Since εPKC and HSP90 are predominately cytosolic proteins, it was expected to observe co-immunoprecipitation of εPKC and HSP90 in the cytosolic fraction following exposure to IR.
200-500 μg of mitochondrial or cytosolic protein was diluted into 1 ml of IP Lysis Buffer (150 mM NaCl, 10 mM Tris-HCl, 5 mM EDTA, 0.1% Triton X-100, pH=7.4, containing Sigma Protease Inhibitor 1 and Sigma Phosphatase Inhibitors 1 and 2). Proteins were incubated with εPKC antibody (2 μg) for 2 hours at 4° C. with inversion mixing. 10 μg of Protein A/G Beads (Santa Cruz Biotechnology) were added and the mixture was incubated overnight at 4° C. with inversion mixing. Beads were then centrifuged, washed 3× in IP Lysis Buffer, then re-suspended in sample buffer. Immunoprecipitated proteins were separated on 10% SDS-PAGE gels. The presence of associated proteins was determined by western blotting using antibodies specific for PKCε HSP90, TOM20 and TIM23. Protein immunoprecipitation was then repeated in reverse (immunoprecipitation with HSP90, TOM20 or TIM23 antibodies followed by western blotting with εPKC antibody). […]

Compound	effect on IR-induced CPK release / IR injury ([1]; 1 μM TAT-conjugated peptide)	effect on IR-induced CPK release / IR injury ([1]; 1 μM TAT-conjugated peptide, listed as corresponding sequence from the HSP90 protein)	increase in CPK release ([1]; IR (35 min ischemia, 15 min reperfusion) with 5 μM GA during reperfusion, versus IR alone, n=7, p<0.05)	effect on CPK release in the absence of IR injury ([1]; normoxic hearts, 5 μm or 10 μm GA)	block of IR-induced translocation of εPKC to the mitochondrial fraction ([2]; GA 5 μm during reperfusion, n=5, p<0.05)	reduction of IR-induced CPK release ([1]; 1 μM TAT-conjugated peptide, 10 min before ischemia and first 10 min of reperfusion, versus IR alone, p<0.05)	mitochondrial translocation of εPKC in the absence of phospholipids (PS/DAG) [3]	mitochondrial translocation of εPKC in the absence of phospholipids (PS/DAG) ([3]; listed as ψεHSP90)	effect on association/translocation of εPKC with isolated mitochondria in vitro ([3]; 1 μM ψεHSP90, FIG. 6B lanes 2-5)	effect on PKCδ association with the mitochondria after IR [4]	effect on mitochondrial translocation of PKCε after IR ([2]; 1 μM ψεHSP90)	higher mitochondrial PKCε levels versus IR group untreated with peptide ([2]; IR in the presence of 1 μm ψεHSP90 peptide)	effect on PKCε translocation to the plasma membrane [5]	effect on IR-induced physical association of PKCε and HSP90 at the mitochondria ([6]; 1 μM ψεHSP90)	increase in IR-induced physical interaction between HSP90 and PKCε (co-immunoprecipitation) ([6]; 1 μM ψεHSP90, mitochondrial fraction)
PEDEEEK (not fully specified)	no statistical effect	no effect	–	–	–	–	–	–	–	–	–	–	–	–	–
COC1=C2C[C@@H](C)C[C@H](OC)[C@H](O)[C@@H](C)/C=C(\C)[C@H](OC(N)=O)[C@@H](OC)/C=C\C=C(/C)C(=O)NC(=CC1=O)C2=O [GA, geldanamycin]	–	–	176%	no effect	54%	–	–	–	–	–	–	–	–	–	–
PKDNEER (not fully specified) [ψεHSP90 peptide]	significantly reduced	–	–	–	–	47%	resulted in translocation of εPKC	sufficient to induce	increased	not altered; also recorded: without effect	enhanced	~20%	did not affect	increased	~4 fold
